Laboratory results as given in patent US11814367B2, “Inhibitors of glycogen synthase 1 (GYS1) and methods of use thereof” (Maze Therapeutics, Inc., priority 2021, dated 2023).

Assays:
[1] = biological target: hGYS1 enzyme (recombinant hGYS1/GN1 protein) (Homo sapiens (Human), UniProt P13807); test: GYS1 coupled enzyme assay (PK/LDH); format: biochemical; settings: hGYS1/GN1 50 nM, UDP-Glucose 0.8 mM, G6P 1 mM; geometric mean of at least 2 runs
[2] = tested on: hGYS1 enzyme / glycogen synthesis in HeLa cells; test: GYS1 cell based assay (glycogen synthesis, Glucose-glo); design: species or system human; settings: 24 h incubation, 20 mM glucose, geometric mean of at least 2 runs
From the text: The GYS1 cell based assay is a bioluminescent assay that quantifies the glucose resulting from glycogen digestion; the quantified glucose is an indirect measure of GYS1 glycogen synthesis. Newly synthesized glycogen is digested using Glucoamylase; the resulting glucose is quantified by using the Glucose-glo assay kit from Promega. Glucose-glo works by coupling glucose oxidation and NADH production with a bioluminescent system that is activated with NADH. Glucose is oxidized by Glucose dehydrogenase and the reaction reduces NAD+ to NADH; NADH activates Reductase which reduces a pro-luciferin Reductase Substrate to luciferin. Luciferin is detected in a luciferase reaction using Ultra-Glo rLuciferase and ATP, and the luminesce produced is proportional to the glucose in the sample. The luminescence is measured as a single point read in a plate reader.
Compounds that inhibit the hGYS1 enzyme and, subsequently, the glycogen synthesis in cells, were tested using assay ready plates (white, clear bottom 384 well plates) in a final DMSO reaction volume of 1% DMSO. Compounds in the assay ready plates were mixed with media with no additives, except for 20 mM glucose prior to cell addition. HeLa cells were starved in media with no additives, except for 1× Glutamax for 24 h. Starved HeLa cells were plated, in a 1:1 ratio to the media in the assay ready plate and incubated for 24 h at 37° C. and 5% C02. Cells were washed in 1×PBS buffer and lysed in lysis buffer containing 50% 1×PBS and 25% 0.3 N HCl of the final volume in the well or reaction volume; cells were incubated with lysis buffer for 10 minutes and quenched with the remaining 25% of the reaction volume that consisted of 450 mM Tris pH 8.0. Lysates were mixed in a 1:1 ratio with Glucoamylase in 100 mM Sodium Acetate buffer, pH 5.3; the mixture was incubated for 1 h at 37° C. The digested lysate was mixed in a 1:1 ratio with Glucose-glo detection mixture as per vendor recommendations (Luciferase detection buffer, Reductase, Reductase substrate, Glucose dehydrogenase, and NAD) in read-out plates (solid white 384-well plates) and incubated for 1 h at RT. The plates were read using a plate reader with luminescence capabilities. Each compound concentration Relative Luminescence Unit (RLU) was averaged and normalized to the average RLU of the positive and negative controls to obtain a percentage inhibition. The normalized data vs. concentration was plotted; to determine the half-maximal concentration (IC50), the Levenberg-Marquardt algorithm was used to fit a Hill equation to the dose response data.
The results are shown in Table 3 below, which reports the IC50 of each compound. Unless otherwise specified, IC50 values are reported as the geometric mean of at least 2 assay runs on separate days. As shown in the table below, the compounds of the present invention are potent inhibitors of human GYS1. Unless otherwise specified, IC50 values are reported as the geometric mean of at least two assay runs on separate days. Each run represents the average of a technical replicate, where each compound was assayed twice in the same plate. A superscript “#” symbol in Table 3 indicates results from a single assay run.

Chain of hGYS1 enzyme (recombinant hGYS1/GN1 protein) (P13807 whole entry): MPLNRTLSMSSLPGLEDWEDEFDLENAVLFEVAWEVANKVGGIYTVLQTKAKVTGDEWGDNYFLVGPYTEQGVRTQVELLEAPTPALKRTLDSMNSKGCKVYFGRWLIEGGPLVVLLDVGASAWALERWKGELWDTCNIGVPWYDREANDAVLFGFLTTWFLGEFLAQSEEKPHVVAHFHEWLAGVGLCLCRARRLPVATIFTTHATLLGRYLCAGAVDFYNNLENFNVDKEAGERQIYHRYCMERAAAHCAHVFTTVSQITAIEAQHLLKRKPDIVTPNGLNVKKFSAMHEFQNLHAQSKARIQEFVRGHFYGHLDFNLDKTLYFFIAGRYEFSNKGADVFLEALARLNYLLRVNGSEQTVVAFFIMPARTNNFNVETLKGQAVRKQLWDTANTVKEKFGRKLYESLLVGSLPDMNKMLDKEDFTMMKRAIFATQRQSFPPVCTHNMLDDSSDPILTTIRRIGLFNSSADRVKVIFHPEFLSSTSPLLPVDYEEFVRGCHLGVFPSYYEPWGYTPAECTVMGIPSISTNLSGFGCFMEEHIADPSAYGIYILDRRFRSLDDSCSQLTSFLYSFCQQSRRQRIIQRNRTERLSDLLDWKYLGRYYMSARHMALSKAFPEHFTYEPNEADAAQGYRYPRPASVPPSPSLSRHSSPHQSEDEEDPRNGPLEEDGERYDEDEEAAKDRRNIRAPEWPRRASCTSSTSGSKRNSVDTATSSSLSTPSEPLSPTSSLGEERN
Chain of hGYS1 enzyme (recombinant hGYS1/GN1 protein) (P46976 whole entry partner): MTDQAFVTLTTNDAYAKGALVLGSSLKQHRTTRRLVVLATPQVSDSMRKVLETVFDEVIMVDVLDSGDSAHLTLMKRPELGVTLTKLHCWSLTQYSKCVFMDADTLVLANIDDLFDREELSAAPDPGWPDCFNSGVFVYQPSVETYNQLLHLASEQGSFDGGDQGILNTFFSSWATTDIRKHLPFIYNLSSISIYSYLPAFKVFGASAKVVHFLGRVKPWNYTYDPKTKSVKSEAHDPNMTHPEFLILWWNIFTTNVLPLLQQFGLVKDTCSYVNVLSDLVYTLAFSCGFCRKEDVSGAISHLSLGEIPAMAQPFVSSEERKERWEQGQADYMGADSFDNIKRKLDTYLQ

Compound | IC50 [1] [nM] | IC50 ([2]; Homo sapiens, HeLa, 24 h) [nM] | IC50 [2] [nM]
Cc1cc(C(NC(=O)[C@@H]2C[C@@H](F)CN2C(=O)Cc2cnn[nH]2)c2ccccc2)cc(F)c1C(C)C (single isomer, unassigned) [Compound 678, (2S,4R)-4-fluoro-N-[(R) or (S)-[3-fluoro-5-methyl-4-(propan-2-yl)phenyl](phenyl)methyl]-1-[2-(1H-1,2,3-triazol-5-yl)acetyl]pyrrolidine-2-carboxamide] | 1060 | – | > 10000
CC(C)c1ccc(C(NC(=O)[C@@H]2C[C@@H](F)CN2C(=O)Cc2cnn[nH]2)c2ccccc2)cc1C(F)(F)F (single isomer, unassigned) [Compound 683, (2S,4R)-4-fluoro-N-[(S) or (R)-phenyl[4-(propan-2-yl)-3-(trifluoromethyl)phenyl]methyl]-1-[2-(1H-1,2,3-triazol-5-yl)acetyl]pyrrolidine-2-carboxamide] | 2360 | > 30000 | –
CC(C)c1ccc(C(NC(=O)[C@@H]2C[C@@H](F)CN2C(=O)Cc2cnn[nH]2)c2cccc(-c3cnco3)c2)nc1F (single isomer, unassigned) [Compound 692, (2S,4R)-4-fluoro-N-[(R) or (S)-[6-fluoro-5-(propan-2-yl)pyridin-2-yl][3-(1,3-oxazol-5-yl)phenyl]methyl]-1-[2-(1H-1,2,3-triazol-5-yl)acetyl]pyrrolidine-2-carboxamide] | 2480 | – | > 30000
CC(=O)N1C[C@H](F)C[C@H]1C(=O)NC(c1cccc(-c2ccnn2C)c1)c1ccc(C(C)C)c(F)n1 (single isomer, unassigned) [Compound 695, (2S,4R)-1-acetyl-4-fluoro-N-[(S) or (R)-[6-fluoro-5-(propan-2-yl)pyridin-2-yl][3-(1-methyl-1H-pyrazol-5-yl)phenyl]methyl] pyrrolidine-2-carboxamide] | 929 | > 26300 | –
CC(=O)N(C)[C@H](C)C(=O)N1C[C@H](F)C[C@H]1C(=O)N[C@@H](c1ccccc1)c1ccc(C(C)C)cc1 [Compound 145, (2S,4R)-4-fluoro-1-[(2R)-2-(N-methylacetamido)propanoyl]-N-[(S)-phenyl[4-(propan-2-yl)phenyl]methyl]pyrrolidine-2-carboxamide] | 915 | > 10000 | –
CC(=O)N1CCOCC1C(=O)N1C[C@H](F)C[C@H]1C(=O)N[C@@H](c1ccccc1)c1ccc(C(C)C)cc1 (stereo partly drawn) [Compound 149, (2S,4R)-1-(4-acetylmorpholine-3-carbonyl)-4-fluoro-N-[(S)-phenyl[4-(propan-2-yl)phenyl]methyl]pyrrolidine-2-carboxamide] | 332 | > 10000 | –
CC(=O)N1C[C@H]2CC[C@H](C(=O)N3C[C@H](F)C[C@H]3C(=O)N[C@@H](c3ccccc3)c3ccc(C(C)C)cc3)[C@H]2C1 [Compound 177, (2S,4R)-1-[(3aS,4S,6aS)-2-acetyl-octahydrocyclopenta[c]pyrrole-4-carbonyl]-4-fluoro-N-[(S)-phenyl[4-(propan-2-yl)phenyl]methyl]pyrrolidine-2-carboxamide] | 349 | 2090 | –
CC(=O)N1C[C@@H]2C[C@@H]2[C@H]1C(=O)N[C@@H](c1ccccc1)c1ccc(C(C)C)cc1 [Compound 201, (1S,2S,5R)-3-acetyl-N-[(S)-phenyl[4-(propan-2-yl)phenyl]methyl]-3-azabicycl[3.1.0]hexane-2-carboxamide] | 461 | 3700 | –
CC(C)c1ccc([C@@H](NC(=O)[C@@H]2C[C@@H](F)CN2C(=O)Cc2noc(=O)n2C)c2ccccc2)nc1 [Compound 267, (2S,4R)-4-fluoro-1-[2-(4-methyl-5-oxo-4,5-dihydro-1,2,4-oxadiazol-3-yl)acetyl]-N-[(S)-phenyl[5-(propan-2-yl)pyridin-2-yl]methyl]pyrrolidine-2-carboxamide] | 464 | 4300 | –
O=C(N[C@@H](c1ccccc1)c1ccc(C2CC2)c(F)c1)[C@@H]1C[C@@H](F)CN1C(=O)CN1CCOCC1=O [Compound 423, (2S,4R)-N-[(S)-(4-cyclopropyl-3-fluorophenyl)(phenyl)methyl]-4-fluoro-1-[2-(3-oxomorpholin-4-yl)acetyl]pyrrolidine-2-carboxamide] | 350 | > 9260 | –

Stronger by IC50 [1], values ahead:

IC50 [1] [nM] | IC50 ([2]; Homo sapiens, HeLa, 24 h) [nM] | IC50 [2] [nM] | Compound
149 | > 18600 | – | CC(C)c1ccc([C@@H](NC(=O)[C@@H]2C[C@@H](F)CN2C(=O)Cn2cnnc2)c2ccccc2)nc1 [Compound 285, (2S,4R)-4-fluoro-N-[(S)-phenyl[5-(propan-2-yl)pyridin-2-yl]methyl]-1-[2-(4H-1,2,4-triazol-4-yl)acetyl]pyrrolidine-2-carboxamide]
147 | > 30000 | – | CC(C)c1ccc([C@@H](NC(=O)[C@@H]2C[C@@H](F)CN2C(=O)Cc2noc(=O)[nH]2)c2ccccc2)nc1 [Compound 286, (2S,4R)-4-fluoro-1-[2-(5-oxo-4,5-dihydro-1,2,4-oxadiazol-3-yl)acetyl]-N-[(S)-phenyl[5-(propan-2-yl)pyridin-2-yl]methyl]pyrrolidine-2-carboxamide]
103 | 2710 | – | CC(=O)N1C[C@H](F)C[C@H]1C(=O)NC(c1cccc(-c2cc(C)n[nH]2)c1)c1ccc(C(C)C)c(F)n1 (single isomer, unassigned) [Compound 696, (2S,4R)-1-acetyl-4-fluoro-N-[(S) or (R)-[6-fluoro-5-(propan-2-yl)pyridin-2-yl][3-(3-methyl-1H-pyrazol-5-yl)phenyl]methyl] pyrrolidine-2-carboxamide]
99 | 1660 | – | O=C(NC(c1ccc(F)cc1)c1ccc(C2CC2)c(F)n1)[C@@H]1C[C@@H](F)CN1C(=O)Cn1nnnc1C(F)F (single isomer, unassigned) [Compound 658, (2S,4R)-N-[(S) or (R)-(5-cyclopropyl-6-fluoropyridin-2-yl)(4-fluorophenyl)methyl]-1-{2-[5-(difluoromethyl)-1H-1,2,3,4-tetrazol-1-yl]acetyl}-4-fluoropyrrolidine-2-carboxamide]
56 | – | 1150 | CC(C)c1ccc(C(NC(=O)[C@@H]2C[C@@H](F)CN2C(=O)Cc2cnn[nH]2)c2cccc(-c3cnco3)c2)nc1F (single isomer, unassigned) [Compound 693, (2S,4R)-4-fluoro-N-[(S) or (R)-[6-fluoro-5-(propan-2-yl)pyridin-2-yl][3-(1,3-oxazol-5-yl)phenyl]methyl]-1-[2-(1H-1,2,3-triazol-5-yl)acetyl]pyrrolidine-2-carboxamide]
15 | 390 | – | CC(=O)NCC(=O)N1C[C@H](F)C[C@H]1C(=O)NC(c1cccc(-c2ccn[nH]2)c1)c1ccc(C(C)C)c(F)n1 (single isomer, unassigned) [Compound 691, (2S,4R)-1-(2-acetamidoacetyl)-4-fluoro-N-[(S) or (R)-[6-fluoro-5-(propan-2-yl)pyridin-2-yl][3-(1H-pyrazol-5-yl)phenyl]methyl] pyrrolidine-2-carboxamide]
15 | 700 | – | O=C(N[C@@H](c1ccccc1)c1ccc(C2CC2)c(F)n1)[C@@H]1C[C@@H](F)CN1C(=O)Cc1cccn2c(=O)[nH]nc12 [Compound 297, (2S,4R)-N-[(S)-(5-cyclopropyl-6-fluoropyridin-2-yl)(phenyl)methyl]-4-fluoro-1-(2-{3-oxo-2H,3H-[1,2,4]triazolo[4,3-a]pyridin-8-yl}acetyl)pyrrolidine-2-carboxamide]
9 | 400 | – | CC(C)c1ccc([C@@H](NC(=O)[C@@H]2C[C@@H](F)CN2C(=O)Cc2nn(C)c(=O)[nH]2)c2ccccc2)nc1F [Compound 397, (2S,4R)-4-fluoro-N-[(S)-[6-fluoro-5-(propan-2-yl)pyridin-2-yl](phenyl)methyl]-1-[2-(1-methyl-5-oxo-4,5-dihydro-1H-1,2,4-triazol-3-yl)acetyl] pyrrolidine-2-carboxamide]
